In patent US20240294885A1, “ENGINEERED ENZYMES AND METHODS OF MAKING AND USING” (priority 2021, published 2024):

What was measured:
Type in all cases: biochemical
[1] = target: Mycobacterium avium CAR (SEQ ID NO:153) Variant 1 of Table 14 (K275D N276S F278S A283C I300G N335D), Variant 35 A282P M296A M389S F425N (Mycobacterium avium, UniProt A0ACD7BNV2, A282P/A283C/F278S/F425N/G391S/I300G/K275D/M296A/M389S/N276S/N335D); assay: CAR lysate assay with 30 mM 6ACA ± 0.25M HMD (Table 14), Variant 35; conditions: Variant 35, Table 14, 6ACA
[2] = target: T1, Mycobacterium avium CAR (SEQ ID NO:153) Variant 1 of Table 14, K275D N276S F278S A283C I300G N335D (Mycobacterium avium, UniProt A0ACD7BNV2, A283C/F278S/G391S/I300G/K275D/N276S/N335D); assay: CAR lysate assay with 30 mM 6ACA ± 0.25M HMD (Table 14), CAR Variant 1; conditions: CAR Variant 1, Table 14, 6ACA
[3] = target: Mycobacterium avium CAR (SEQ ID NO:153) Variant 1 of Table 14 (K275D N276S F278S A283C I300G N335D), Variant 4 S274P (Mycobacterium avium, UniProt A0ACD7BNV2, A283C/F278S/G391S/I300G/K275D/N276S/N335D/S274P); assay: CAR lysate assay with 30 mM 6ACA ± 0.25M HMD (Table 14), Variant 4; conditions: Variant 4, Table 14, 6ACA
[4] = target: Mycobacterium avium CAR (SEQ ID NO:153) Variant 1 of Table 14 (K275D N276S F278S A283C I300G N335D), Variant 12 M296H (Mycobacterium avium, UniProt A0ACD7BNV2, A283C/F278S/G391S/I300G/K275D/M296H/N276S/N335D); assay: CAR lysate assay with 30 mM 6ACA ± 0.25M HMD (Table 14), Variant 12; conditions: Variant 12, Table 14, 6ACA
[5] = target: T1, Mycobacterium avium CAR (SEQ ID NO:153) Variant 1 of Table 14, K275D N276S F278S A283C I300G N335D; assay: CAR lysate assay with 10 mM 6ACA ± 125 mM HMD or 0.25M HMD (Table 15), CAR Variant 1
[6] = target: Mycobacterium avium CAR (SEQ ID NO:153) Variant 1 of Table 14 (K275D N276S F278S A283C I300G N335D), Variant 36 A282P M296A M389S N401T F425L (Mycobacterium avium, UniProt A0ACD7BNV2, A282P/A283C/F278S/F425L/G391S/I300G/K275D/M296A/M389S/N276S/N335D/N401T); assay: CAR lysate assay with 30 mM 6ACA ± 0.25M HMD (Table 14), Variant 36; conditions: Variant 36, Table 14, 6ACA
[7] = target: Mycobacterium avium CAR (SEQ ID NO:153) Variant 1 of Table 14 (K275D N276S F278S A283C I300G N335D), Variant 38 A282P M296A N401T F425L (Mycobacterium avium, UniProt A0ACD7BNV2, A282P/A283C/F278S/F425L/G391S/I300G/K275D/M296A/N276S/N335D/N401T); assay: CAR lysate assay with 30 mM 6ACA ± 0.25M HMD (Table 14), Variant 38; conditions: Variant 38, Table 14, 6ACA
[8] = target: Mycobacterium avium CAR (SEQ ID NO:153) Variant 1 of Table 14 (K275D N276S F278S A283C I300G N335D), Variant 34 A282P M296A F425T (Mycobacterium avium, UniProt A0ACD7BNV2, A282P/A283C/F278S/F425T/G391S/I300G/K275D/M296A/N276S/N335D); assay: CAR lysate assay with 30 mM 6ACA ± 0.25M HMD (Table 14), Variant 34; conditions: Variant 34, Table 14, 6ACA
[9] = target: Mycobacterium avium CAR (SEQ ID NO:153) Variant 1 of Table 14 (K275D N276S F278S A283C I300G N335D), Variant 37 A282P M296A M389S N401T F425N (Mycobacterium avium, UniProt A0ACD7BNV2, A282P/A283C/F278S/F425N/G391S/I300G/K275D/M296A/M389S/N276S/N335D/N401T); assay: CAR lysate assay with 30 mM 6ACA ± 0.25M HMD (Table 14), Variant 37; conditions: Variant 37, Table 14, 6ACA
[10] = target: Mycobacterium avium CAR (SEQ ID NO:153) Variant 1 of Table 14 (K275D N276S F278S A283C I300G N335D), Variant 33 A282P M296A F425L (Mycobacterium avium, UniProt A0ACD7BNV2, A282P/A283C/F278S/F425L/G391S/I300G/K275D/M296A/N276S/N335D); assay: CAR lysate assay with 30 mM 6ACA ± 0.25M HMD (Table 14), Variant 33; conditions: Variant 33, Table 14, 6ACA
[11] = system: carboxylic acid reductase (CAR); conditions: 6ACA as substrate, 30 mM or 10 mM; HMD 125 mM or 0.25M

Row | Structure (SMILES) | Vmax [1] | Vmax [2] | Vmax [3] | Vmax [4] | Vmax ([5]; CAR Variant 1, Table 15, 6ACA) | Vmax [6] | Vmax [7] | Vmax [8] | Vmax [9] | Vmax [10] | inhibition of CAR in the presence of HMD [11] | % inhibition @ 0.25M HMD & 10 mM 6ACA ([5]; CAR Variant 1, 0.25M HMD, 10 mM 6ACA)
1 | NCCCCCC(=O)O [6ACA] | ++ (5.0-10.0) | +++ (>10.0) | +++ (>10.0) | +++ (>10.0) | +++ (>10.0) | ++ (5.0-10.0) | ++ (5.0-10.0) | + (<5) | ++ (5.0-10.0) | + (<5) | – | –
2 | NCCCCCCN [HMD, hexamethylenediamine, reference compound] | – | – | – | – | – | – | – | – | – | – | inhibited | ++ (60-90)
